{"source": "patent US10710978B2", "about": "“STK4 inhibitors for treatment of hematologic malignancies” (Dana-Farber Cancer Institute, Inc., priority 2015, dated 2020)", "assay_in_all_cases": "KiNativ assay", "format_in_all_cases": "binding", "conditions_in_all_cases": "H929 live cell", "key": {"[1]": {"target": "CaMK2d (Homo sapiens (Human), UniProt Q13557)", "description": "(§1) Biochemical IC50s of the compounds of the present disclosure against various kinases were measured in a KiNativ assay. Compounds were screened in duplicate at 10 μM in H929 live cell. IC50 was measured via Mass spectroscopy (MS)."}, "[2]": {"tested_on": "CDK11, CDK8", "description": "as §1"}, "[3]": {"target": "SNRK (Homo sapiens (Human), UniProt Q9NRH2)", "description": "as §1"}, "[4]": {"target": "CDK2 (Homo sapiens (Human), UniProt P24941)", "description": "as §1"}, "[5]": {"tested_on": "p38d, p38g", "description": "as §1"}, "[6]": {"target": "PKD2 (Homo sapiens (Human), UniProt Q9BZL6)", "description": "as §1"}, "[7]": {"target": "ILK (Homo sapiens (Human), UniProt Q13418)", "description": "as §1"}, "[8]": {"target": "RSK2 domain1 (Homo sapiens (Human), UniProt P51812)", "description": "as §1"}, "[9]": {"target": "CK1a (Homo sapiens (Human), UniProt P48729)", "sequence (P48729 whole entry)": "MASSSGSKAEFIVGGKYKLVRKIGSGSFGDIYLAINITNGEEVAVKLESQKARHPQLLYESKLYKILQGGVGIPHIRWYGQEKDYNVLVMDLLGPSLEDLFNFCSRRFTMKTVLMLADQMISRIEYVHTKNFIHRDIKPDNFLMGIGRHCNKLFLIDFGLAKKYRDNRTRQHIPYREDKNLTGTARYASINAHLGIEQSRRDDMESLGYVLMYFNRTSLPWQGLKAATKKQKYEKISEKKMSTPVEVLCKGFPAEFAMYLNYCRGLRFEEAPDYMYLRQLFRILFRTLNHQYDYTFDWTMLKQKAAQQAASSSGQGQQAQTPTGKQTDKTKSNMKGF", "description": "as §1"}, "[10]": {"target": "SRPK2 (Homo sapiens (Human), UniProt P78362)", "description": "as §1"}, "[11]": {"target": "RSK1 domain1 (Homo sapiens (Human), UniProt Q15418)", "description": "as §1"}, "[12]": {"target": "MASTL (Homo sapiens (Human), UniProt Q96GX5)", "sequence (Q96GX5 whole entry)": "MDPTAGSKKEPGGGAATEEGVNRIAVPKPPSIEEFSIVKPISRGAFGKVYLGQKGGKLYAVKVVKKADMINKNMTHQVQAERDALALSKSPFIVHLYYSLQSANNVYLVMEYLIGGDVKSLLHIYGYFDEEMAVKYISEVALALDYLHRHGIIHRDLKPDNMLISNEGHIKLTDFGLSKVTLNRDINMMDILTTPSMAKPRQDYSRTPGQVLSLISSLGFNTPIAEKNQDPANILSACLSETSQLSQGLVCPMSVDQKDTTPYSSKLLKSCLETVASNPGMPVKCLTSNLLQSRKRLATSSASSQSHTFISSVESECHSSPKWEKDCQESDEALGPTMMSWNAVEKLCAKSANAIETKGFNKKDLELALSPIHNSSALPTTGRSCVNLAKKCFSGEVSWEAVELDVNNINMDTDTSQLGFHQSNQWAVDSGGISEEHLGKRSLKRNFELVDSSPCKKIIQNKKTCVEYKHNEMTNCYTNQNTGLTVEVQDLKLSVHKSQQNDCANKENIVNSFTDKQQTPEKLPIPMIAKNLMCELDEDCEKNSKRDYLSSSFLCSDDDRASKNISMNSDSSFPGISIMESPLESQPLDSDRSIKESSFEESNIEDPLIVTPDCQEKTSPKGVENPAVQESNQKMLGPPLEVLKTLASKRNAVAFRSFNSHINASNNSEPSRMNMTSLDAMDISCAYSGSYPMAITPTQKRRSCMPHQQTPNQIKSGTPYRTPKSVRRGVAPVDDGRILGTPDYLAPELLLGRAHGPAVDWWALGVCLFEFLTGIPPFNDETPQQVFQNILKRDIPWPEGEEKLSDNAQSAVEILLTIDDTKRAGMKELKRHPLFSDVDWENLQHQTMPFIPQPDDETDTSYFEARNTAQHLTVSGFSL", "description": "as §1"}, "[13]": {"target": "TLK2 (Homo sapiens (Human), UniProt Q86UE8)", "sequence (Q86UE8 whole entry)": "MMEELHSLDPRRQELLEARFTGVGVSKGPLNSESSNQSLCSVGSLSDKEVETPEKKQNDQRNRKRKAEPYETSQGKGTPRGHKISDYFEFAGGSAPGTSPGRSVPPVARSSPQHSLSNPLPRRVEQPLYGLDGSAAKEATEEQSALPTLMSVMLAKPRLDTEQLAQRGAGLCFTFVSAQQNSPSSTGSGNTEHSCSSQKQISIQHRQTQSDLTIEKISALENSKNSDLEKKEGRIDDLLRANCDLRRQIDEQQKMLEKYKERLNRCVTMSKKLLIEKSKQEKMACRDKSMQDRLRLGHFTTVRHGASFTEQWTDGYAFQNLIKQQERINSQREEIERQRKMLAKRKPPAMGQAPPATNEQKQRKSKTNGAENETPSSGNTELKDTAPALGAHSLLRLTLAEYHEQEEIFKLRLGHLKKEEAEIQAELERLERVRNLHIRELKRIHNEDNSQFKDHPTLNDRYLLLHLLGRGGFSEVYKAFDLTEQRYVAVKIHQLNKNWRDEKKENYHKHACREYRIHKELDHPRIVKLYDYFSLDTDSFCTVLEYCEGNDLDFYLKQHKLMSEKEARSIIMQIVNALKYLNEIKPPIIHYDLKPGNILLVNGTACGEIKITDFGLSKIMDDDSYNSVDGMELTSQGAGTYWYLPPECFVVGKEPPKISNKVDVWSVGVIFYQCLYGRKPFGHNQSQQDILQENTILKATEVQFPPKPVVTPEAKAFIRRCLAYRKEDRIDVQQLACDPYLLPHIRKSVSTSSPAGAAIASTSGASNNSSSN", "description": "as §1"}, "[14]": {"target": "EphB2 (Homo sapiens (Human), UniProt P29323)", "description": "as §1"}, "[15]": {"target": "STLK5 (Homo sapiens (Human), UniProt Q7RTN6)", "description": "as §1"}, "[16]": {"target": "HPK1 (Homo sapiens (Human), UniProt Q92918)", "sequence (Q92918 whole entry)": "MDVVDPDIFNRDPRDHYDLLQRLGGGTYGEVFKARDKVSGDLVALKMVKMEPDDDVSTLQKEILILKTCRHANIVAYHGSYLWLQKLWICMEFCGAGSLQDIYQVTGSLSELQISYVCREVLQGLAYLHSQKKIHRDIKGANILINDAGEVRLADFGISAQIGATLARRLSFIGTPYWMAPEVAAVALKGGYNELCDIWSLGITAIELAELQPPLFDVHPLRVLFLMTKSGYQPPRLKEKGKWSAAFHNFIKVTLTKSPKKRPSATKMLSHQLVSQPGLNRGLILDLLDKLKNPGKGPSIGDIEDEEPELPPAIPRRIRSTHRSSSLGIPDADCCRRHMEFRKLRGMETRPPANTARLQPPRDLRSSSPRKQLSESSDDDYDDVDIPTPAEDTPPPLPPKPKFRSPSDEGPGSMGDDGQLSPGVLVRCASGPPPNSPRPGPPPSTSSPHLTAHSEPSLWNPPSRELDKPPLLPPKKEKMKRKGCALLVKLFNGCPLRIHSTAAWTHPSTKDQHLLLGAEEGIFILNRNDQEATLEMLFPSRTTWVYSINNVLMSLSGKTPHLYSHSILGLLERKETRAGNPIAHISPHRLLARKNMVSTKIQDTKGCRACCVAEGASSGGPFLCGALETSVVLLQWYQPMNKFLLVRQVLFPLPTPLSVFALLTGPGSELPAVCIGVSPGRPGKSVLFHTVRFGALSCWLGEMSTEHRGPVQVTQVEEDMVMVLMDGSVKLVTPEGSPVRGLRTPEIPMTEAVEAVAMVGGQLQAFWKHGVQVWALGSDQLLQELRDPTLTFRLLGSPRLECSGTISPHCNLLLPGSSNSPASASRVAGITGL", "description": "as §1"}, "[17]": {"target": "RSK1 domain2 (Homo sapiens (Human), UniProt Q15418)", "description": "as §1"}, "[18]": {"target": "ACK (Homo sapiens (Human), UniProt Q07912)", "description": "as §1"}, "[19]": {"target": "PLK1 (Homo sapiens (Human), UniProt P53350)", "description": "as §1"}, "[20]": {"target": "NEK7 (Homo sapiens (Human), UniProt Q8TDX7)", "description": "as §1"}, "[21]": {"target": "CDK5 (Homo sapiens (Human), UniProt Q00535)", "description": "as §1"}, "[22]": {"target": "MAP2K3 (Homo sapiens (Human), UniProt P46734)", "sequence (P46734 whole entry)": "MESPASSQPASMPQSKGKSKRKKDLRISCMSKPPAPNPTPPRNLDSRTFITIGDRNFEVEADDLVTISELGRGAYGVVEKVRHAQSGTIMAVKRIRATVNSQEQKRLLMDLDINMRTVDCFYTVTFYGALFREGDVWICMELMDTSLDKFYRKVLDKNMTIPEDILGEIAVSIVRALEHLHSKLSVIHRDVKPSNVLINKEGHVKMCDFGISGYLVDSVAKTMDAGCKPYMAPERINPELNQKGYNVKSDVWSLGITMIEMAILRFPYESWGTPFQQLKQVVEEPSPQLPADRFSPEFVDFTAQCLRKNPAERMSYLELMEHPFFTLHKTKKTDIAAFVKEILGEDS", "description": "as §1"}, "[23]": {"target": "NuaK2 (Homo sapiens (Human), UniProt Q9H093)", "description": "as §1"}, "[24]": {"target": "NEK4 (Homo sapiens (Human), UniProt P51957)", "description": "as §1"}, "[25]": {"target": "PRPK (Homo sapiens (Human), UniProt Q96S44)", "sequence (Q96S44 whole entry)": "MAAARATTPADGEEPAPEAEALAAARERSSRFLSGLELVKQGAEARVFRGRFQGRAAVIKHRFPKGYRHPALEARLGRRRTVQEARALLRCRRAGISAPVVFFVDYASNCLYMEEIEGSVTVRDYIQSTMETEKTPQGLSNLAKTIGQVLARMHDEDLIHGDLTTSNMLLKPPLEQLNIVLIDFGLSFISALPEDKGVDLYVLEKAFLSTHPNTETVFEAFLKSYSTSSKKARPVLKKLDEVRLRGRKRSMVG", "description": "as §1"}, "[26]": {"target": "PIK3C3 (Homo sapiens (Human), UniProt Q8NEB9)", "description": "as §1"}, "[27]": {"target": "MPSK1 (Homo sapiens (Human), UniProt O75716)", "description": "as §1"}, "[28]": {"target": "MAP2K6 (Homo sapiens (Human), UniProt P52564)", "description": "as §1"}, "[29]": {"target": "JAK1 domain1 (Homo sapiens (Human), UniProt P23458)", "description": "as §1"}, "[30]": {"tested_on": "MST4", "description": "as §1"}, "[31]": {"target": "GCN2 domain2 (Homo sapiens (Human), UniProt Q9P2K8)", "sequence (Q9P2K8 whole entry, the tested form may be a part)": "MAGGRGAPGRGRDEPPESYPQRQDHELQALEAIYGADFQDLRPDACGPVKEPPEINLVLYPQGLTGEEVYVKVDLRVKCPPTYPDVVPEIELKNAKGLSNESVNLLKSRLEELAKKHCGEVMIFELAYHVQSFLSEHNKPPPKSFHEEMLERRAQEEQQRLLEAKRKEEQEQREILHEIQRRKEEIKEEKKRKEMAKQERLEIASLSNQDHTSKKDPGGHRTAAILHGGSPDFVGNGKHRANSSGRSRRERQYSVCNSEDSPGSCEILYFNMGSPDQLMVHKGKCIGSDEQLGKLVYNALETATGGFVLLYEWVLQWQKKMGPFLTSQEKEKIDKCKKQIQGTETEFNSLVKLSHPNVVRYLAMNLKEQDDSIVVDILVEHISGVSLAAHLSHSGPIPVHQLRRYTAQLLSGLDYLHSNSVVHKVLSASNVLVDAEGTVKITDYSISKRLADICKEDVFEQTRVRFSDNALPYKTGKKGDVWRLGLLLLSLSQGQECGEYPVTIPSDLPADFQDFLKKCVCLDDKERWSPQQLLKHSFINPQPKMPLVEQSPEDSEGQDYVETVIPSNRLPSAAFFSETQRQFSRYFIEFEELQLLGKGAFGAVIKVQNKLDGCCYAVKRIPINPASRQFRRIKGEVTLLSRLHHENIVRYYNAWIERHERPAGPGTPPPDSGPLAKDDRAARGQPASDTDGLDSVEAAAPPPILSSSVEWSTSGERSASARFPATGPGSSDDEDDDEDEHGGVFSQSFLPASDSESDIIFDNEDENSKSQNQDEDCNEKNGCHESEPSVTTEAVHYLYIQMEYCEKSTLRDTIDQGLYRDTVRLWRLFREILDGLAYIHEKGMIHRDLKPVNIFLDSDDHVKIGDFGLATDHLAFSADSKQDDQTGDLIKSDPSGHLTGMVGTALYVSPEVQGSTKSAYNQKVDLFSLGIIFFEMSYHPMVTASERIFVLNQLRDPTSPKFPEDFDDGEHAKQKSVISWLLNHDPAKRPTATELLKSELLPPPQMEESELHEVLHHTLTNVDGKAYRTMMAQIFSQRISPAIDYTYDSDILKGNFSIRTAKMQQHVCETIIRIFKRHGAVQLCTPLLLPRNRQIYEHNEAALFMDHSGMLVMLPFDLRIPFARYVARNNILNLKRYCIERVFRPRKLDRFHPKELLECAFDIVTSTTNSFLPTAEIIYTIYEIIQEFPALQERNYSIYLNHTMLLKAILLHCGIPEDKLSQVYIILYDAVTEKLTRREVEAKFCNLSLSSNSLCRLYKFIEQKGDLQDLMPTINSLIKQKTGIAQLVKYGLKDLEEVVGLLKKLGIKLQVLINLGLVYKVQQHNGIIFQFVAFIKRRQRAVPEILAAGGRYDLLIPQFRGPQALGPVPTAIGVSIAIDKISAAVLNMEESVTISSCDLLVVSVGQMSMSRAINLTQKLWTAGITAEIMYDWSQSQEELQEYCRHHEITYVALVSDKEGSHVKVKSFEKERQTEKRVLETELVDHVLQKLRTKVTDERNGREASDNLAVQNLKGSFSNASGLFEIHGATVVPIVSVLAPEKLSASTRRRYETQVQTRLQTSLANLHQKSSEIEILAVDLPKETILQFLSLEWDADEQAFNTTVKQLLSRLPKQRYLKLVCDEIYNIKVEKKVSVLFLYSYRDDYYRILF", "description": "as §1"}, "[32]": {"target": "PIP4K2A (Homo sapiens (Human), UniProt P48426)", "description": "as §1"}, "[33]": {"target": "PEK (Homo sapiens (Human), UniProt Q9NZJ5)", "description": "as §1"}}, "note": "Like-named read-outs stand apart in the source and are kept apart here."}
{"smiles": "CN(C1CC1)S(=O)(=O)c1ccc(-c2cnc(N)c(-c3ccc4c(c3)CCNC4=O)c2)c(F)c1", "note": "[Compound I-28, 4-(6-amino-5-(1-oxo-1,2,3,4-tetrahydroisoquinolin-6-yl)pyridin-3-yl)-N-cyclopropyl-3-fluoro-N-methylbenzenesulfonamide]", "values": [{"measurement": "inhibition at 10 µM", "setting": "[1]; read-out: % inhibition (range)", "value": 0, "unit": "%"}, {"measurement": "inhibition at 10 µM", "setting": "[1]; read-out: inhibition (10 μM)", "value": -31, "unit": "%"}, {"measurement": "% inhibition (range)", "setting": "[2]; 10 μM", "value": 0.0, "unit": "%"}, {"measurement": "inhibition (10 μM)", "setting": "[2]", "value": 4.9, "unit": "%"}, {"measurement": "inhibition at 10 µM", "setting": "[3]; read-out: % inhibition (range)", "value": 0, "unit": "%"}, {"measurement": "inhibition at 10 µM", "setting": "[3]; read-out: inhibition (10 μM)", "value": 0, "unit": "%"}, {"measurement": "inhibition at 10 µM", "setting": "[4]; read-out: % inhibition (range)", "value": 0, "unit": "%"}, {"measurement": "inhibition at 10 µM", "setting": "[4]; read-out: inhibition (10 μM)", "value": 27.6, "unit": "%"}, {"measurement": "% inhibition (range)", "setting": "[5]; 10 μM", "value": 0.0, "unit": "%"}, {"measurement": "inhibition (10 μM)", "setting": "[5]", "value": 7.7, "unit": "%"}, {"measurement": "inhibition at 10 µM", "setting": "[6]; read-out: % inhibition (range)", "value": "35 to 50", "unit": "%"}, {"measurement": "inhibition at 10 µM", "setting": "[6]; read-out: inhibition (10 μM)", "value": 38.9, "unit": "%"}, {"measurement": "inhibition at 10 µM", "setting": "[7]; read-out: % inhibition (range)", "value": 0, "unit": "%"}, {"measurement": "inhibition at 10 µM", "setting": "[7]; read-out: inhibition (10 μM)", "value": -5.8, "unit": "%"}, {"measurement": "inhibition at 10 µM", "setting": "[8]; read-out: % inhibition (range)", "value": 0, "unit": "%"}, {"measurement": "inhibition at 10 µM", "setting": "[8]; read-out: inhibition (10 μM)", "value": 20.3, "unit": "%"}, {"measurement": "inhibition at 10 µM", "setting": "[9]; read-out: % inhibition (range)", "value": "35 to 50", "unit": "%"}, {"measurement": "inhibition at 10 µM", "setting": "[9]; read-out: inhibition (10 μM)", "value": 37.8, "unit": "%"}, {"measurement": "inhibition at 10 µM", "setting": "[10]; read-out: % inhibition (range)", "value": 0, "unit": "%"}, {"measurement": "inhibition at 10 µM", "setting": "[10]; read-out: inhibition (10 μM)", "value": 8.5, "unit": "%"}, {"measurement": "inhibition at 10 µM", "setting": "[11]; read-out: % inhibition (range)", "value": 0, "unit": "%"}, {"measurement": "inhibition at 10 µM", "setting": "[11]; read-out: inhibition (10 μM)", "value": 15.6, "unit": "%"}, {"measurement": "inhibition at 10 µM", "setting": "[12]; read-out: % inhibition (range)", "value": 0, "unit": "%"}, {"measurement": "inhibition at 10 µM", "setting": "[12]; read-out: inhibition (10 μM)", "value": 10.2, "unit": "%"}, {"measurement": "inhibition at 10 µM", "setting": "[13]; read-out: % inhibition (range)", "value": 0, "unit": "%"}, {"measurement": "inhibition at 10 µM", "setting": "[13]; read-out: inhibition (10 μM)", "value": 14.2, "unit": "%"}, {"measurement": "inhibition at 10 µM", "setting": "[14]; read-out: % inhibition (range)", "value": 0, "unit": "%"}, {"measurement": "inhibition at 10 µM", "setting": "[14]; read-out: inhibition (10 μM)", "value": -2, "unit": "%"}, {"measurement": "inhibition at 10 µM", "setting": "[15]; read-out: % inhibition (range)", "value": 0, "unit": "%"}, {"measurement": "inhibition at 10 µM", "setting": "[15]; read-out: inhibition (10 μM)", "value": 6.3, "unit": "%"}, {"measurement": "inhibition at 10 µM", "setting": "[16]; read-out: % inhibition (range)", "value": "> 90", "unit": "%"}, {"measurement": "inhibition at 10 µM", "setting": "[16]; read-out: inhibition (10 μM)", "value": 90.8, "unit": "%"}, {"measurement": "inhibition at 10 µM", "setting": "[17]; read-out: % inhibition (range)", "value": 0, "unit": "%"}, {"measurement": "inhibition at 10 µM", "setting": "[17]; read-out: inhibition (10 μM)", "value": 3.8, "unit": "%"}, {"measurement": "inhibition at 10 µM", "setting": "[18]; read-out: % inhibition (range)", "value": 0, "unit": "%"}, {"measurement": "inhibition at 10 µM", "setting": "[18]; read-out: inhibition (10 μM)", "value": -18.8, "unit": "%"}, {"measurement": "inhibition at 10 µM", "setting": "[19]; read-out: % inhibition (range)", "value": 0, "unit": "%"}, {"measurement": "inhibition at 10 µM", "setting": "[19]; read-out: inhibition (10 μM)", "value": 15.2, "unit": "%"}, {"measurement": "inhibition at 10 µM", "setting": "[20]; read-out: % inhibition (range)", "value": 0, "unit": "%"}, {"measurement": "inhibition at 10 µM", "setting": "[20]; read-out: inhibition (10 μM)", "value": 16, "unit": "%"}, {"measurement": "inhibition at 10 µM", "setting": "[21]; read-out: % inhibition (range)", "value": 0, "unit": "%"}, {"measurement": "inhibition at 10 µM", "setting": "[21]; read-out: inhibition (10 μM)", "value": 17, "unit": "%"}, {"measurement": "inhibition at 10 µM", "setting": "[22]; read-out: % inhibition (range)", "value": 0, "unit": "%"}, {"measurement": "inhibition at 10 µM", "setting": "[22]; read-out: inhibition (10 μM)", "value": 1.4, "unit": "%"}, {"measurement": "inhibition at 10 µM", "setting": "[23]; read-out: % inhibition (range)", "value": 0, "unit": "%"}, {"measurement": "inhibition at 10 µM", "setting": "[23]; read-out: inhibition (10 μM)", "value": 11.2, "unit": "%"}, {"measurement": "inhibition at 10 µM", "setting": "[24]; read-out: % inhibition (range)", "value": 0, "unit": "%"}, {"measurement": "inhibition at 10 µM", "setting": "[24]; read-out: inhibition (10 μM)", "value": -2.8, "unit": "%"}, {"measurement": "inhibition at 10 µM", "setting": "[25]; read-out: % inhibition (range)", "value": 0, "unit": "%"}, {"measurement": "inhibition at 10 µM", "setting": "[25]; read-out: inhibition (10 μM)", "value": 10.1, "unit": "%"}, {"measurement": "inhibition at 10 µM", "setting": "[26]; read-out: % inhibition (range)", "value": "> 100", "unit": "%"}, {"measurement": "inhibition at 10 µM", "setting": "[26]; read-out: inhibition (10 μM)", "value": -107, "unit": "%"}, {"measurement": "inhibition at 10 µM", "setting": "[27]; read-out: % inhibition (range)", "value": 0, "unit": "%"}, {"measurement": "inhibition at 10 µM", "setting": "[27]; read-out: inhibition (10 μM)", "value": -9.1, "unit": "%"}, {"measurement": "inhibition at 10 µM", "setting": "[28]; read-out: % inhibition (range)", "value": 0, "unit": "%"}, {"measurement": "inhibition at 10 µM", "setting": "[28]; read-out: inhibition (10 μM)", "value": 27.6, "unit": "%"}, {"measurement": "inhibition at 10 µM", "setting": "[29]; read-out: % inhibition (range)", "value": 0, "unit": "%"}, {"measurement": "inhibition at 10 µM", "setting": "[29]; read-out: inhibition (10 μM)", "value": -38.6, "unit": "%"}, {"measurement": "% inhibition (range)", "setting": "[30]; 10 μM", "value": "50-75%"}, {"measurement": "inhibition (10 μM)", "setting": "[30]", "value": 63.9, "unit": "%"}, {"measurement": "inhibition at 10 µM", "setting": "[31]; read-out: % inhibition (range)", "value": 0, "unit": "%"}, {"measurement": "inhibition at 10 µM", "setting": "[31]; read-out: inhibition (10 μM)", "value": -32.1, "unit": "%"}, {"measurement": "inhibition at 10 µM", "setting": "[32]; read-out: % inhibition (range)", "value": 0, "unit": "%"}, {"measurement": "inhibition at 10 µM", "setting": "[32]; read-out: inhibition (10 μM)", "value": 3.2, "unit": "%"}, {"measurement": "inhibition at 10 µM", "setting": "[33]; read-out: % inhibition (range)", "value": 0, "unit": "%"}, {"measurement": "inhibition at 10 µM", "setting": "[33]; read-out: inhibition (10 μM)", "value": -15.7, "unit": "%"}]}
